From US20230174556A1, “COMPOUNDS AS PROTEIN KINASE INHIBITORS” (Fochon Biosciences, Ltd., priority 2020, published 2023)

tested on: OCI-LY10 (PI3Kδ dependent) cells; assay: OCI-LY10 cell proliferation assay (MTS); format: cell-based; settings: Homo sapiens, OCI-Ly10, 72 h, inhibition of OCI-LY10 cells proliferation, 72 h incubation, MTS readout at 490 nm
Description: MTS testing kit was purchased from Promega (Madison, WI, USA). The RPMI-1640, Fetal bovine serum and Penicillin-Streptomycin were purchased from BI (Biological Industries, Beit Haemek, Israel). Dimethyl sulfoxide (DMSO) was purchased from Sigma (St. Louis., MO, USA). OCI-LY10 cells were cultured in RPMI1640 supplemented with Penicillin-Streptomycin and 10% FBS.
To investigate whether a compound is able to inhibit the activity of PI3Kδ in cells, a mechanism-based assay using OCI-LY10 (PI3Kδ dependent) cells was developed. In this assay, inhibition of PI3Kδ was detected by the inhibition of OCI-LY10 cells proliferation. Cells were plated into 96-well plates at a density of 10000 cells/well. Plates were incubated at 37° C., with 5 % CO2 for 4 h. Compounds were serially diluted and added to the plates with the final compound concentrations as 10000, 3333.3, 1111.1, […], 123.5, 41.2, 13.7, 4.6 and 1.5 nM. Plates were incubated at 37° C., with 5 % CO2 for 72 h. 20 µl MTS was added into each well and the plates were incubated at 37° C., with 5 % CO2 for exactly 2 h. The absorbance was measured by a microplate reader at 490 nm. IC50 was calculated using GraphPad Prism 5.0 software.

IC50 [nM] | SMILES
15 | C[C@@H](c1cc2scc(Cl)n2c(=O)c1-c1ccccc1)n1nc(-c2ccc(OC3CC3)c(F)c2)c2c(N)ncnc21 [Example 13, (S)-7-(1-(4-amino-3-(4-cyclopropoxy-3-fluorophenyl)-1H-pyrazolo[3,4-d]pyrimidin-1-yl)ethyl)-3-chloro-6-phenyl-5H-thiazolo[3,2-a]pyridin-5-one]
1 | Cc1csc2cc([C@H](C)n3nc(-c4ccc(OC(F)F)c(F)c4)c4c(N)ncnc43)c(-c3cccc(F)c3)c(=O)n12 [Example 14, (S)-7-(1-(4-amino-3-(4-(difluoromethoxy)-3-fluorophenyl)-1H-pyrazolo[3,4-d]pyrimidin-1-yl)ethyl)-6-(3-fluorophenyl)-3-methyl-5H-thiazolo[3,2-a]pyrid in-5-one]
1 | Cc1csc2cc([C@H](C)n3nc(-c4ccc(OC(F)F)c(F)c4)c4c(N)ncnc43)c(-c3ccccc3)c(=O)n12 [Example 15, (S)-7-(1-(4-amino-3-(4-(difluoromethoxy)-3-fluorophenyl)-1H-pyrazolo[3,4-d]pyrimidin-1-yl)ethyl)-3-methyl-6-ph enyl-5H-thiazolo[3,2-a]pyridin-5-one]
26 | Cc1csc2cc([C@H](C)n3nc(-c4ccc(OC5CC5)c(F)c4)c4c(N)ncnc43)c(-c3cccc(F)c3)c(=O)n12 [Example 16, (S)-7-(1-(4-amino-3-(4-cyclopropoxy-3-fluorophenyl)-1H-pyrazolo[3,4-d]pyrimidin-1-yl)ethyl)-6-(3-fluorophenyl) -3-methyl-5H-thiazolo[3,2-a]pyridin-5-one]
1 | Cc1csc2cc([C@H](C)n3nc(-c4ccc(OC(C)C)nc4)c4c(N)ncnc43)c(-c3ccccc3)c(=O)n12 [Example 18, (S)-7-(1-(4-amino-3-(6-isopropoxypyridin-3-yl)-1H-pyrazolo[3,4-d]pyrimidin-1-yl)ethyl)-3-methyl-6-phenyl-5H-thi azolo[3,2-a]pyridin-5-one]
1 | Cc1csc2cc([C@H](C)n3nc(-c4ccc(OC(C)C)nc4)c4c(N)ncnc43)c(-c3cccc(F)c3)c(=O)n12 [Example 19, (S)-7-(1-(4-amino-3-(6-isopropoxypyridin-3-yl)-1H-pyrazolo[3,4-d]pyrimidin-1-yl)ethyl)-6-(3-fluorophenyl)-3-methyl-5H-thiazolo[3,2-a]pyridin-5-one]
1 | Cc1csc2cc([C@H](C)n3nc(-c4cnc(OC(C)C)c(F)c4)c4c(N)ncnc43)c(-c3ccccc3)c(=O)n12 [Example 20, (S)-7-(1-(4-amino-3-(5-fluoro-6-isopropoxypyridin-3-yl)-1H-pyrazolo[3,4-d]pyrimidin-1-yl)ethyl)-3-methyl-6-phenyl-5H-thiazolo[3,2-a]pyridin-5-one]
1 | Cc1csc2cc([C@H](C)n3nc(-c4cnc(OC(C)C)c(F)c4)c4c(N)ncnc43)c(-c3cccc(F)c3)c(=O)n12 [Example 21, (S)-7-(1-(4-amino-3-(5-fluoro-6-isopropoxypyridin-3-yl)-1H-pyrazolo[3,4-d]pyrimidin-1-yl)ethyl)-6-(3-fluorophenyl)-3-methyl-5H-thiazolo[3,2-a]pyridi n-5-one]
40 | COc1ccc(-c2nn([C@@H](C)c3cc4scc(Cl)n4c(=O)c3-c3ccccc3)c3ncnc(N)c23)cc1NS(C)(=O)=O [Example 44, (S)-N-(5-(4-amino-1-(1-(3-chloro-5-oxo-6-phenyl-5H-thiazolo[3,2-a]pyridin-7-yl)ethyl)-1H-pyrazolo[3,4-d]pyrimidin-3-yl)-2-methoxyphenyl)methanesul fonamide]
41 | COc1ccc(-c2nn([C@@H](C)c3cc4scc(Cl)n4c(=O)c3-c3cccc(F)c3)c3ncnc(N)c23)cc1NS(C)(=O)=O [Example 45, (S)-N-(5-(4-amino-1-(1-(3-chloro-6-(3-fluorophenyl)-5-oxo-5H-thiazolo[3,2-a]pyridin-7-yl)ethyl)-1H-pyrazolo[3,4-d]pyrimidin-3-yl)-2-methoxyphenyl)m ethanesulfonamide]
2 | COc1ncc(-c2nn([C@@H](C)c3cc4scc(Cl)n4c(=O)c3-c3cccc(F)c3)c3ncnc(N)c23)cc1NS(C)(=O)=O [Example 79, (S)-N-(5-(4-amino-1-(1-(3-chloro-6-(3-fluorophenyl)-5-oxo-5H-thiazolo[3,2-a]pyridin-7-yl)ethyl)-1H-pyrazolo[3,4-d]pyrimidin-3-yl)-2-methoxypyridin-3-yl)methanesulfonamide]

same assay, conditions: inhibition of OCI-LY10 cells proliferation, 72 h incubation, MTS readout at 490 nm

SMILES | IC50 [nM]
Cc1csc2cc([C@H](C)n3nc(-c4ccc(OC5CC5)c(F)c4)c4c(N)ncnc43)c(-c3ccccc3)c(=O)n12 [Example 17, (S)-7-(1-(4-amino-3-(4-cyclopropoxy-3-fluoropheny1)-1H-pyrazolo[3,4-d]pyrimidin-1-yl)ethyl)-3-methyl-6-phenyl-5H-thiazolo[3,2-a]pyridin-5-one] | 65
C[C@@H](c1cc2scc(Cl)n2c(=O)c1-c1cccc(F)c1)n1nc(-c2ccc(OC(F)F)c(F)c2)c2c(N)ncnc21 [Example 66, (S)-7-(1-(4-amino-3-(4-(difluoromethoxy)-3-fluorophenyl)-1H-pyrazolo[3,4-d]pyrimidin-1-yl)ethyl)-3-chloro-6-(3-fluorophenyl)-5H-thiazolo[3,2-α]pyrid in-5-one] | 5
C[C@@H](c1cc2scc(Cl)n2c(=O)c1-c1ccccc1)n1nc(-c2ccc(OC(F)F)c(F)c2)c2c(N)ncnc21 [Example 67, (S)-7-(1-(4-amino-3-(4-(difluoromethoxy)-3-fluorophenyl)-1H-pyrazolo[3,4-d]pyrimidin-1-yl)ethyl)-3-chloro-6-ph enyl-5H-thiazolo[3,2-α]pyridin-5-one] | 1
COc1ncc(-c2nn([C@@H](C)c3cc4scc(C)n4c(=O)c3-c3cccc(F)c3)c3ncnc(N)c23)cc1NS(C)(=O)=O [Example 77, (S)-N-(5-(4-amino-1-(1-(6-(3-fluorophenyl)-3-methyl-5-oxo-5H-thiazolo[3,2-a]pyridin-7-yl)ethyl)-1H-pyrazolo[3,4-d]pyrimidin-3-y1)-2-methoxypyridin-3-yl)methanesulfonamide] | 1
COc1ncc(-c2nn([C@@H](C)c3cc4scc(Cl)n4c(=O)c3-c3ccccc3)c3ncnc(N)c23)cc1NS(C)(=O)=O [Example 78, (S)-N-(5-(4-amino-1-(1-(3-chloro-5-oxo-6-phenyl-5H-thiazolo[3,2-α]pyridin-7-yl)ethyl)-1H-pyrazolo[3,4-d]pyrimidin-3-yl)-2-methoxypyridin-3-yl)metha nesulfonamide] | 3
Cc1csc2cc([C@H](C)n3nc(-c4ccc(OC(C)C)c(C#N)c4)c4c(N)ncnc43)c(-c3ccccc3)c(=O)n12 [Example 82, (S)-5-(4-amino-1-(1-(3-methyl-5-oxo-6-phenyl-5H-thiazolo[3,2-α]pyridin-7-yl)ethyl)-1H-pyrazolo[3,4-d]pyrimidin-3-yl)-2-isopropoxybenzonitrile] | 1
Cc1csc2cc([C@H](C)n3nc(-c4ccc(OC(C)C)c(C#N)c4)c4c(N)ncnc43)c(-c3cccc(F)c3)c(=O)n12 [Example 83, (S)-5-(4-amino-1-(1-(6-(3-fluorophenyl)-3-methyl-5-oxo-5H-thiazolo[3,2-α]pyridin-7-yl)ethyl)-1H-pyrazolo[3,4-d]pyrimidin-3-yl)-2-isopropoxybenzonitrile] | 1
CC(C)Oc1ccc(-c2nn([C@@H](C)c3cc4scc(Cl)n4c(=O)c3-c3ccccc3)c3ncnc(N)c23)cc1C#N [Example 84, (S)-5-(4-amino-l-(1-(3-chloro-5-oxo-6-phenyl-5H-thiazolo[3,2-α]pyridin-7-yl)ethyl)-1H-pyrazolo[3,4-d]pyrimidin-3-yl)-2-isopropoxy benzonitrile] | 1
CC(C)Oc1ccc(-c2nn([C@@H](C)c3cc4scc(Cl)n4c(=O)c3-c3cccc(F)c3)c3ncnc(N)c23)cc1C#N [Example 85, (S)-5-(4-amino-1-(1-(3-chloro-6-(3-fluorophenyl)-5-oxo-5H-thiazolo[3,2-α]pyridin-7-yl)ethyl)-1H-pyrazolo[3,4-d]pyrimidin-3-yl)-2-isopropoxybenzonitrile] | 8
CC(C)Oc1ccc(-c2nn([C@@H](C)c3cc4scc(Cl)n4c(=O)c3-c3ccccc3)c3ncnc(N)c23)cn1 [Example 86, (S)-7-(1-(4-amino-3-(6-isopropoxypyridin-3-yl)-1H-pyrazolo[3,4-d]pyrimidin-1-yl)ethyl)-3-chloro-6-phenyl-5H-thia zolo [3,2-α] pyridin-5-one] | 2
CC(C)Oc1ccc(-c2nn([C@@H](C)c3cc4scc(Cl)n4c(=O)c3-c3cccc(F)c3)c3ncnc(N)c23)cn1 [Example 87, (S)-7-(1-(4-amino-3-(6-isopropoxypyridin-3-yl)-1H-pyrazolo[3,4-d]pyrimidin-1-yl)ethyl)-3-chloro-6-(3-fluoropheny 1)-5H-thiazol[3,2-α]pyridin-5-one] | 64
Cc1csc2cc([C@H](C)n3nc(-c4cnc(OC(C)C)nc4)c4c(N)ncnc43)c(-c3ccccc3)c(=O)n12 [Example 88, (S)-7-(1-(4-amino-3-(2-isopropoxypyrimidin-5-yl)-1H-pyrazolo[3,4-d]pyrimidin-1-yl)ethyl)-3-methyl-6-phenyl-5H-thiazolo[3,2-α]pyridin-5-one] | 34
